Data: the kinase profiling compilation of Christmann-Franck et al. (2016)

How the values were obtained:
Assay in all cases: KINOMEscan competition binding
Details in all cases: compound 1.0 µM
INSR (human) = INSR (human) (UniProt P06213)
CSNK1E (human) = CSNK1E (human) (UniProt P49674)
EPHA4 (human) = EPHA4 (human) (UniProt P54764)
BMPR1A (human) = BMPR1A (human) (UniProt P36894)
PHKG2 (human) = PHKG2 (human) (UniProt P15735)
CAMK4 (human) = CAMK4 (human) (UniProt Q16566)
[1] = tested on: ABL1 (human), P00519 [T315I]
CLK4 (human) = CLK4 (human) (UniProt Q9HAZ1)
LATS1 (human) = LATS1 (human) (UniProt O95835)
PDGFRA (human) = PDGFRA (human) (UniProt P16234)
WEE2 (human) = WEE2 (human) (UniProt P0C1S8)
CDK15 (human) = CDK15 (human) (UniProt Q96Q40)
STK25 (human) = STK25 (human) (UniProt O00506)
PIM1 (human) = PIM1 (human) (UniProt P11309)
DCLK2 (human) = DCLK2 (human) (UniProt Q8N568)
Chain of DCLK2 (human) (Q8N568 whole entry, looked up): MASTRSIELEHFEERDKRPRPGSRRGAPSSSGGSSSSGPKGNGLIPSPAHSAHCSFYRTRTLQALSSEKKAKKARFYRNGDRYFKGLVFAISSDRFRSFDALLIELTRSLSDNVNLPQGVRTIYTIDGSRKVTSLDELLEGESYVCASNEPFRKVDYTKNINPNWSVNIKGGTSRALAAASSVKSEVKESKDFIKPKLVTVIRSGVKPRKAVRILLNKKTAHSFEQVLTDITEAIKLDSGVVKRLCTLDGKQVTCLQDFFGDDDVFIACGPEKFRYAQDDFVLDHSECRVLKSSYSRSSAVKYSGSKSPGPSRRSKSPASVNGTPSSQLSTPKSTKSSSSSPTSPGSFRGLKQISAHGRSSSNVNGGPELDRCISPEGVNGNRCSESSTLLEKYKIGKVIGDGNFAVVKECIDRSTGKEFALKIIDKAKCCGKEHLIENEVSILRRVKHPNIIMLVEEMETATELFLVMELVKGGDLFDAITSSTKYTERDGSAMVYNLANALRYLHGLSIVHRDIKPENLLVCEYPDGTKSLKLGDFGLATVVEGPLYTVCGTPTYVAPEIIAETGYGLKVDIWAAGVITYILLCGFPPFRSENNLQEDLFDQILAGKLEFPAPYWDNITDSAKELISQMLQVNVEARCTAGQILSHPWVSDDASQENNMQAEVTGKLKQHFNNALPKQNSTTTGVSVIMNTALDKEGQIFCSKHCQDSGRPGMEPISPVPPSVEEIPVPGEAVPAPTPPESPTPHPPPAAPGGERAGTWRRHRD

MARK4 (human) = MARK4 (human) (UniProt Q96L34)
[2] = tested on: ABL1 (human), P00519 [Q252H]
NTRK2 (human) = NTRK2 (human) (UniProt Q16620)
PRKX (human) = PRKX (human) (UniProt P51817)
CDC42BPA (human) = CDC42BPA (human) (UniProt Q5VT25)
FLT1 (human) = FLT1 (human) (UniProt P17948)
[3] = tested on: ABL1 (human), P00519 [E255K]
TESK1 (human) = TESK1 (human) (UniProt Q15569)
MAP4K2 (human) = MAP4K2 (human) (UniProt Q12851)
CSNK1G2 (human) = CSNK1G2 (human) (UniProt P78368)
CDK19 (human) = CDK19 (human) (UniProt Q9BWU1)
[4] = tested on: RET (human), P07949 [V804L]
NEK1 (human) = NEK1 (human) (UniProt Q96PY6)
FLT4 (human) = FLT4 (human) (UniProt P35916)
MAPKAPK2 (human) = MAPKAPK2 (human) (UniProt P49137)
MYO3A (human) = MYO3A (human) (UniProt Q8NEV4)
Chain of MYO3A (human) (Q8NEV4 whole entry, looked up): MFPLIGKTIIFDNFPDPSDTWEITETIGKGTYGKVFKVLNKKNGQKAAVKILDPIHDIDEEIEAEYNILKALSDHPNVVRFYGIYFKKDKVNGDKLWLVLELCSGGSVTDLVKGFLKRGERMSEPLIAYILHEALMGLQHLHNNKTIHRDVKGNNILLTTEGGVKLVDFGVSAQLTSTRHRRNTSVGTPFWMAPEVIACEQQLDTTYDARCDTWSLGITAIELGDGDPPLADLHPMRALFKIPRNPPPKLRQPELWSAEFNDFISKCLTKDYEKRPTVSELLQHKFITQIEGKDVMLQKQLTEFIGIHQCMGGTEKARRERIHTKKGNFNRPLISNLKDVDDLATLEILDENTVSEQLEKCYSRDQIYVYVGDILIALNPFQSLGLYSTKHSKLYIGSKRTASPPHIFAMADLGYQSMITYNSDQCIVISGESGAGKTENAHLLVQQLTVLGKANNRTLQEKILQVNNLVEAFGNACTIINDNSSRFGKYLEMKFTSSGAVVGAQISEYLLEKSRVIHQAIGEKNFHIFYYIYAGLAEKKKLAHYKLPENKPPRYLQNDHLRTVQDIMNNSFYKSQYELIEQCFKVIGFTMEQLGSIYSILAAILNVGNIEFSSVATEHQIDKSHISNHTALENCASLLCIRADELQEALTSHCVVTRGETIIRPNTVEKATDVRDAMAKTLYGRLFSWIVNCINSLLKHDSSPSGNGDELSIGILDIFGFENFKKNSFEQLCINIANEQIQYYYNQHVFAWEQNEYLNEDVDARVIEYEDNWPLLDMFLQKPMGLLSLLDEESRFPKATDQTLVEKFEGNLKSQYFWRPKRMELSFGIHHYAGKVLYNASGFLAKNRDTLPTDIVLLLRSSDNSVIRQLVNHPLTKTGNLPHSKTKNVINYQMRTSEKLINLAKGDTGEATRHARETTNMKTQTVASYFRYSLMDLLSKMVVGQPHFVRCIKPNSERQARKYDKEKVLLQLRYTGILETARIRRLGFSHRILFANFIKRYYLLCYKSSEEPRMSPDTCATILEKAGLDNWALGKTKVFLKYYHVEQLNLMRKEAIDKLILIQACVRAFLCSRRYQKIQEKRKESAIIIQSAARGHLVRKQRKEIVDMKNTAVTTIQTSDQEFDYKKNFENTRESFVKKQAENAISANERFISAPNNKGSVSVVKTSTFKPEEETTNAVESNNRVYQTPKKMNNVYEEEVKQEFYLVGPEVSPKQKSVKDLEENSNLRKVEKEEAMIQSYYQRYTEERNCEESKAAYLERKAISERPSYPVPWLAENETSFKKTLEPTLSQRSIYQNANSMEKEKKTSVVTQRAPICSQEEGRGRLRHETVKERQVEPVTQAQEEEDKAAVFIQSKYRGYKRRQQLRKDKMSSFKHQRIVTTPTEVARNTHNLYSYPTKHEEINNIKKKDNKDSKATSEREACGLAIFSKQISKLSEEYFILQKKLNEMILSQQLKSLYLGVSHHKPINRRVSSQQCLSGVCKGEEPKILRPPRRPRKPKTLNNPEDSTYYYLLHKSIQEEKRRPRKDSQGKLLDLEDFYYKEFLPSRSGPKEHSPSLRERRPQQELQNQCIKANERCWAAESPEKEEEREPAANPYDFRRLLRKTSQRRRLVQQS

EIF2AK2 (human) = EIF2AK2 (human) (UniProt P19525)
Chain of EIF2AK2 (human) (P19525 whole entry, looked up): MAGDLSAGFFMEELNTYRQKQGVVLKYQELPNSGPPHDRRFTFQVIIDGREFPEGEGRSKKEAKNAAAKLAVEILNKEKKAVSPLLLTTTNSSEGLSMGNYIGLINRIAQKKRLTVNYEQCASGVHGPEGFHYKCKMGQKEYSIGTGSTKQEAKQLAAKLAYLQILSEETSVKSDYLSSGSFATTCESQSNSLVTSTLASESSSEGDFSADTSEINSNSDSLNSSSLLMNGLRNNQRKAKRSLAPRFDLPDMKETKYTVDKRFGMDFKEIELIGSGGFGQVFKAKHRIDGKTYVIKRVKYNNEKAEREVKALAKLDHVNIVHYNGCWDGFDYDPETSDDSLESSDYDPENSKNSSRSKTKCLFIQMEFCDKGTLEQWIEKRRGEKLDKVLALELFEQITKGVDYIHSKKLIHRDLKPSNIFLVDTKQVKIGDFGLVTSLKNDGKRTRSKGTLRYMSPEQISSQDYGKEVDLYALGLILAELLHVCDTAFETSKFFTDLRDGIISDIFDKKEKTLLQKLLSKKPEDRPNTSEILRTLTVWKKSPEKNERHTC

MAPK8 (human) = MAPK8 (human) (UniProt P45983)
Chain of MAPK8 (human) (P45983 whole entry, looked up): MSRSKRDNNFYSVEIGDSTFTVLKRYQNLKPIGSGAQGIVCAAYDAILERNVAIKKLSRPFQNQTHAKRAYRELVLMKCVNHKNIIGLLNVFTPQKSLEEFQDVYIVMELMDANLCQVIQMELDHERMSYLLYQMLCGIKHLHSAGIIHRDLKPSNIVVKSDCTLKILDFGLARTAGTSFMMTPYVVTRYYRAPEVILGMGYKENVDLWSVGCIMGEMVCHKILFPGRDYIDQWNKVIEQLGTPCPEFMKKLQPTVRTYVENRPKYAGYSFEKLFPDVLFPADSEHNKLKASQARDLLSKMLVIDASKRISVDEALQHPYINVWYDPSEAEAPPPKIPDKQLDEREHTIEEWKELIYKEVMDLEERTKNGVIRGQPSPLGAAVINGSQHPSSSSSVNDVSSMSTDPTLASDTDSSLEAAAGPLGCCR

MUSK (human) = MUSK (human) (UniProt O15146)
[5] = tested on: KIT (human), P10721 [V559D]
STK16 (human) = STK16 (human) (UniProt O75716)
MKNK2 (human) = MKNK2 (human) (UniProt Q9HBH9)
TLK1 (human) = TLK1 (human) (UniProt Q9UKI8)
[6] = biological target: JAK2 JH1 catalytic (human) (UniProt O60674)
Chain of JAK2 JH1 catalytic (human) (O60674 whole entry, looked up): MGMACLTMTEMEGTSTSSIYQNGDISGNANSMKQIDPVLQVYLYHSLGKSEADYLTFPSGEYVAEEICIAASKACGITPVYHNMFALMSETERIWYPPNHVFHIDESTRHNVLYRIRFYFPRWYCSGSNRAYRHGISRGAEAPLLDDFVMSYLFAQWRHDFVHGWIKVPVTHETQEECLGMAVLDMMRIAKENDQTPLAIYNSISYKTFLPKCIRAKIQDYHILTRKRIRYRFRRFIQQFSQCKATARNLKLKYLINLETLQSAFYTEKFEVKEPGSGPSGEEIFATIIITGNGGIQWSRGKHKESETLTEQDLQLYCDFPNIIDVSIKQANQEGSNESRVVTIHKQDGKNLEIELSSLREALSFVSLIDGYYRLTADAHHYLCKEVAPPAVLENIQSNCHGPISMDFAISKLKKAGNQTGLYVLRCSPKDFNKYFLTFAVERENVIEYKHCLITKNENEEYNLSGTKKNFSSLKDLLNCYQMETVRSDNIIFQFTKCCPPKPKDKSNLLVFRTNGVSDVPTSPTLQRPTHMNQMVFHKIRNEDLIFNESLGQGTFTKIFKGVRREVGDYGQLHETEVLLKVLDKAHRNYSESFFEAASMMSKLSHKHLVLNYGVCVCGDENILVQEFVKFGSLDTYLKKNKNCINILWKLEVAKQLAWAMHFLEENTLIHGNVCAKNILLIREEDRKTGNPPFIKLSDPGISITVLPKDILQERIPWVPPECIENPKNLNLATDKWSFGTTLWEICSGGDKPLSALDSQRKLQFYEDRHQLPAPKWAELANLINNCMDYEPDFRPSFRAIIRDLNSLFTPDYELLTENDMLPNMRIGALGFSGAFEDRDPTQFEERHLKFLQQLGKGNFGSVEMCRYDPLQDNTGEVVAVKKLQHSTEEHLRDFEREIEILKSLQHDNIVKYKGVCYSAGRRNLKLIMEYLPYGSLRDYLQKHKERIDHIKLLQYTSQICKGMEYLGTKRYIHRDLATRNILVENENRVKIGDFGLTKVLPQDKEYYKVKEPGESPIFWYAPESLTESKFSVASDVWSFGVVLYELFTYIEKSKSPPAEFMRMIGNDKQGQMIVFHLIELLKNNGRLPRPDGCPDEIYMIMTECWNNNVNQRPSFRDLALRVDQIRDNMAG

SLK (human) = SLK (human) (UniProt Q9H2G2)

Chain of CAMK4 (human) (Q16566 whole entry, looked up): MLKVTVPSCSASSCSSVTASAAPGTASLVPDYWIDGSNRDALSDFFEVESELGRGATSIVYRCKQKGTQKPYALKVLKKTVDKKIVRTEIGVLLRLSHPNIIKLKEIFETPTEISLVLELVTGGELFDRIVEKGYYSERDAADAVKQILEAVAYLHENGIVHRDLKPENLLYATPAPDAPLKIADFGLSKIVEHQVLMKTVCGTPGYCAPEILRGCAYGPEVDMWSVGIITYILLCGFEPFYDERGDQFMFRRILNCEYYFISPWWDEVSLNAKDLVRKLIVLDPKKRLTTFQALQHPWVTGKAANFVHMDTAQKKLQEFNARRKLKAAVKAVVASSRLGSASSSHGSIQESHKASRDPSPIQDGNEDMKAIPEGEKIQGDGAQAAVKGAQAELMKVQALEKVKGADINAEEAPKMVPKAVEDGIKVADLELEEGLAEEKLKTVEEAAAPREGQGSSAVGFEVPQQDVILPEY

inhibition of binding (INSR (human)): 30%
inhibition of binding (CSNK1E (human)): 7%
inhibition of binding (EPHA4 (human)): 2%
inhibition of binding (BMPR1A (human)): 0%
inhibition of binding (PHKG2 (human)): 11%
inhibition of binding (CAMK4 (human)): 50%
inhibition of binding [1]: 2%
inhibition of binding (CLK4 (human)): 70%
inhibition of binding (LATS1 (human)): 4%
inhibition of binding (PDGFRA (human)): 11%
inhibition of binding (WEE2 (human)): 0%
inhibition of binding (CDK15 (human)): 0%
inhibition of binding (STK25 (human)): 0%
inhibition of binding (PIM1 (human)): 2%
inhibition of binding (DCLK2 (human)): 30%
inhibition of binding (MARK4 (human)): 0%
inhibition of binding [2]: 0%
inhibition of binding (NTRK2 (human)): 0%
inhibition of binding (PRKX (human)): 0%
inhibition of binding (CDC42BPA (human)): 0%
inhibition of binding (FLT1 (human)): 0%
inhibition of binding [3]: 0%
inhibition of binding (TESK1 (human)): 0%
inhibition of binding (MAP4K2 (human)): 17%
inhibition of binding (CSNK1G2 (human)): 0%
inhibition of binding (CDK19 (human)): 0%
inhibition of binding [4]: 12%
inhibition of binding (NEK1 (human)): 15%
inhibition of binding (FLT4 (human)): 3%
inhibition of binding (MAPKAPK2 (human)): 0%
inhibition of binding (MYO3A (human)): 7%
inhibition of binding (EIF2AK2 (human)): 19%
inhibition of binding (MAPK8 (human)): 0%
inhibition of binding (MUSK (human)): 0%
inhibition of binding [5]: 0%
inhibition of binding (STK16 (human)): 0%
inhibition of binding (MKNK2 (human)): 5%
inhibition of binding (TLK1 (human)): 12%
inhibition of binding [6]: 12%
inhibition of binding (SLK (human)): 0%
SMILES: Nc1cc(C(F)(F)F)c(-c2cc(N3CCOCC3)nc(N3CCOCC3)n2)cn1
